Test results reported in ChEMBL document CHEMBL1137314, “Small-molecule inhibitors of the MDM2-p53 protein-protein interaction based on an isoindolinone scaffold” (J Med Chem, 2006).
Activity calls are given as the source filed them. The calls are words filed in the database; no cut-off is given here.

system: SJSA-1; assay: Increase of p21 protein level in SJSA cell line by Western blot analysis; format: functional, cell-based; conditions: Homo sapiens

Row | SMILES | Activity
1 | O=C1c2ccccc2C(OCCCO)(c2ccc(Cl)cc2)N1Cc1ccccc1 (stereo unspecified) | Dose-dependent effect
2 | CCCN1C(=O)c2ccccc2C1(OCc1cc(OC)c(O)c(OC)c1)c1ccc(Cl)cc1 (stereo unspecified) | Dose-dependent effect

system: SJSA-1; assay: Increase of MDM2 protein level in SJSA cell line by Western blot analysis; format: functional, cell-based; conditions: Homo sapiens

Row | SMILES | Activity
3 | O=C1c2ccccc2C(OCCCO)(c2ccc(Cl)cc2)N1Cc1ccccc1 (stereo unspecified) | Dose-dependent effect
4 | CCCN1C(=O)c2ccccc2C1(OCc1cc(OC)c(O)c(OC)c1)c1ccc(Cl)cc1 (stereo unspecified) | Dose-dependent effect

biological target: Tumour suppressor p53/oncoprotein Mdm2 (Homo sapiens) (UniProt P04637+Q00987); assay: Induction of p53 dependent transcription in SJSA cell line by reporter gene assay; format: functional, cell-based; conditions: SJSA-1
Sequence (P04637 whole entry, looked up): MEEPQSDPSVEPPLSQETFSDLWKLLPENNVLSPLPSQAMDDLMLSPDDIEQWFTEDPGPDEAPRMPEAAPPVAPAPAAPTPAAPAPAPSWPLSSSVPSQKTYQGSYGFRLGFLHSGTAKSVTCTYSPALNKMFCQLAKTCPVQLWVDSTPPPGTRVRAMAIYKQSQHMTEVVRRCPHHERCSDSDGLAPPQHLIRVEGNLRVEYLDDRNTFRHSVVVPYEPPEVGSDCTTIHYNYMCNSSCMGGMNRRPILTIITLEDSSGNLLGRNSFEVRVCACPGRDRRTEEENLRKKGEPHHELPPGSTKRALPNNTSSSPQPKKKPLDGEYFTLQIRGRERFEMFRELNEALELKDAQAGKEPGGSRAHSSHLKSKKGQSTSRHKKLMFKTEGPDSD
Sequence (Q00987 whole entry, looked up): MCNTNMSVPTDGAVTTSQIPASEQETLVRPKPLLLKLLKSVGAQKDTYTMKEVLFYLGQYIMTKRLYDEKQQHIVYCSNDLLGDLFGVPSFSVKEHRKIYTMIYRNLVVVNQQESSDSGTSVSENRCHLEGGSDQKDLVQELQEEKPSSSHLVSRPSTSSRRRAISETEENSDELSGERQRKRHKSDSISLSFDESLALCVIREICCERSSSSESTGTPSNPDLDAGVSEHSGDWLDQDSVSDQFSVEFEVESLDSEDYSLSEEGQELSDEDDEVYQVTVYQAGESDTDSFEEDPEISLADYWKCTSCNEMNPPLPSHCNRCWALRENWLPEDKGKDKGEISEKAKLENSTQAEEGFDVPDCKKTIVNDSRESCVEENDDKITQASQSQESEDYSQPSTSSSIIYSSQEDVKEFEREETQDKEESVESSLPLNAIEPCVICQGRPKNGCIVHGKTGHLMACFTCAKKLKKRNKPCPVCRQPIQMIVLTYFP

Row | SMILES | Activity
5 | O=C1c2ccccc2C(OCCCO)(c2ccc(Cl)cc2)N1Cc1ccccc1 (stereo unspecified) | Dose-dependent effect
6 | CCCN1C(=O)c2ccccc2C1(OCc1cc(OC)c(O)c(OC)c1)c1ccc(Cl)cc1 (stereo unspecified) | Dose-dependent effect

system: SJSA-1; assay: Increase of p53 protein level in SJSA cell line by Western blot analysis; format: functional, cell-based; conditions: Homo sapiens

Row | SMILES | Activity
7 | O=C1c2ccccc2C(OCCCO)(c2ccc(Cl)cc2)N1Cc1ccccc1 (stereo unspecified) | inactive
8 | CCCN1C(=O)c2ccccc2C1(OCc1cc(OC)c(O)c(OC)c1)c1ccc(Cl)cc1 (stereo unspecified) | inactive

biological target: Tumour suppressor p53/oncoprotein Mdm2 (Homo sapiens, UniProt Q00987); assay: Inhibition of p53-MDM2 interaction by ELISA; format: protein assay; conditions: not given
Sequence (P04637 whole entry): as the sequence (P04637 whole entry, looked up) above
Sequence (Q00987 whole entry): as the sequence (Q00987 whole entry, looked up) above

Row | SMILES | IC50
9 | O=C1c2ccccc2C(OCCOc2ccccc2O)(c2ccccc2)N1Cc1ccccc1 (stereo unspecified) | 221 µM
10 | C=CC(=O)OCCOC1(c2ccccc2)c2ccccc2C(=O)N1Cc1ccccc1 (stereo unspecified) | 439 µM
11 | O=C1c2ccccc2C(OCc2cccc(O)c2)(c2ccccc2)N1Cc1ccccc1 (stereo unspecified) | 58 µM
12 | C=CCNC(=S)NCCOC1(c2ccccc2)c2ccccc2C(=O)N1Cc1ccccc1 (stereo unspecified) | 408 µM
13 | CN(CCOC1(c2ccccc2)c2ccccc2C(=O)N1Cc1ccccc1)c1ccc(C=O)cc1 (stereo unspecified) | 191 µM
14 | O=C1c2ccccc2C(OCCS(=O)(=O)O)(c2ccccc2)N1Cc1ccccc1 (stereo unspecified) | 345 µM
15 | CCCN1C(=O)c2ccccc2C1(OCCNC(=O)c1ccccc1O)c1ccc(C(C)(C)C)cc1 (stereo unspecified) | 70.1 µM
16 | COC(=O)CCNC1(c2ccccc2)c2ccccc2C(=O)N1Cc1ccccc1 (stereo unspecified) | > 500 µM
17 | COC(=O)C(Cc1ccc(O)cc1)N1C(=O)c2ccccc2C1(OCCn1c([N+](=O)[O-])cnc1C)c1ccccc1 (stereo unspecified) | 275 µM
18 | CCOC(=O)CCC(NC1(c2ccccc2)c2ccccc2C(=O)N1Cc1ccccc1)C(=O)OCC (stereo unspecified) | > 500 µM
19 | O=C1c2ccccc2C(N[C@@H](CO)[C@@H](O)c2ccccc2)(c2ccccc2)N1Cc1ccccc1 (stereo partly specified) | 85 µM
20 | O=C1c2ccccc2C(NCC(O)c2cccc(O)c2)(c2ccccc2)N1Cc1ccccc1 (stereo unspecified) | 84 µM
21 | O=C1c2ccccc2C(OCc2cccc([N+](=O)[O-])c2)(c2ccccc2)N1Cc1ccccc1 (stereo unspecified) | 284 µM
22 | O=C1CCC(=O)N1CCOC1(c2ccccc2)c2ccccc2C(=O)N1Cc1ccccc1 (stereo unspecified) | 284 µM
23 | COc1ccc([C@@H](O)COC2(c3ccccc3)c3ccccc3C(=O)N2Cc2ccco2)cc1 (stereo partly specified) | 181 µM
24 | O=C1c2ccccc2C(NC(CO)C(O)c2ccccc2)(c2ccccc2)N1Cc1ccccc1 (stereo unspecified) | 85 µM
25 | O=Cc1ccc(COC2(c3ccccc3)c3ccccc3C(=O)N2Cc2ccccc2)o1 (stereo unspecified) | 97 µM
26 | COc1ccc(CCOC2(c3ccccc3)c3ccccc3C(=O)N2Cc2ccccc2)cc1OC (stereo unspecified) | 311 µM
27 | COCCOC1(c2ccccc2)c2ccccc2C(=O)N1Cc1ccccc1 (stereo unspecified) | 490 µM
28 | O=C1c2ccccc2C(OCc2ccc(O)cc2)(c2ccccc2)N1Cc1ccccc1 (stereo unspecified) | 79 µM
29 | C=C(C)C(=O)OCCNC1(c2ccccc2)c2ccccc2C(=O)N1Cc1ccccc1 (stereo unspecified) | 353 µM

Row | SMILES | IC50
30 | COC(=O)C(Cc1ccc(O)cc1)N1C(=O)c2ccccc2C1(OCCN(CCC#N)c1ccccc1)c1ccccc1 (stereo unspecified) | 88 µM
31 | CCCN1C(=O)c2ccccc2C1(OCc1cc([N+](=O)[O-])c(C)c([N+](=O)[O-])c1)c1ccc(OCOCC[Si](C)(C)C)cc1 (stereo unspecified) | 103 µM
32 | CC(NC1(c2ccccc2)c2ccccc2C(=O)N1Cc1ccccc1)C(O)c1ccc(O)cc1 (stereo unspecified) | 185 µM
33 | O=C1c2ccccc2C(OC/C=C/c2ccccc2)(c2ccccc2)N1Cc1ccccc1 (stereo unspecified) | 334 µM
34 | Cc1cccc(N(CCC#N)CCOC2(c3ccccc3)c3ccccc3C(=O)N2Cc2ccccc2)c1 (stereo unspecified) | 243 µM
35 | COc1ccc([C@@H](O)COC2(c3ccccc3)c3ccccc3C(=O)N2CCCO)cc1 (stereo partly specified) | 326 µM
36 | CCCOC1(c2ccccc2)c2ccccc2C(=O)N1[C@H](C(=O)OC)c1ccc(O)cc1 (stereo partly specified) | 90 µM
37 | O=C(NCCOC1(c2ccccc2)c2ccccc2C(=O)N1Cc1ccccc1)c1ccncc1 (stereo unspecified) | 278 µM
38 | NC(=O)COC1(c2ccccc2)c2ccccc2C(=O)N1Cc1ccccc1 (stereo unspecified) | > 500 µM
39 | CCCNC1(c2ccccc2)c2ccccc2C(=O)N1Cc1ccccc1 (stereo unspecified) | 200 µM
40 | CC(=O)NCCNC1(c2ccccc2)c2ccccc2C(=O)N1Cc1ccccc1 (stereo unspecified) | > 500 µM
41 | CCCN1C(=O)c2ccccc2C1(OCc1cc2c(cc1[N+](=O)[O-])OCO2)c1ccc(C(C)(C)C)cc1 (stereo unspecified) | 70.2 µM
42 | CCCOC1(c2ccccc2)c2ccccc2C(=O)N1CCCC(OC)OC (stereo unspecified) | 70 µM
43 | COC(=O)[C@@H](C)COC1(c2ccccc2)c2ccccc2C(=O)N1Cc1ccccc1 (stereo partly specified) | 330 µM
44 | Cc1ccc([N+](=O)[O-])c(COC2(c3ccccc3)c3ccccc3C(=O)N2Cc2ccccc2)c1 (stereo unspecified) | 232 µM
45 | COC(=O)COC1(c2ccccc2)c2ccccc2C(=O)N1Cc1ccccc1 (stereo unspecified) | > 500 µM
46 | CCCN1C(=O)c2ccccc2C1(OCCc1ccc(O)cc1)c1ccc(C(C)(C)C)cc1 (stereo unspecified) | 69.7 µM
47 | O=C1c2ccccc2C(NCCO)(c2ccccc2)N1Cc1ccccc1 (stereo unspecified) | > 500 µM
48 | CCCN1C(=O)c2ccccc2C1(OCCS(C)(=O)=O)c1ccc(C(C)(C)C)cc1 (stereo unspecified) | 290 µM
49 | O=C1c2ccccc2C(=O)N1CCOC1(c2ccccc2)c2ccccc2C(=O)N1Cc1ccccc1 (stereo unspecified) | 152 µM
50 | CCCOC1(c2ccccc2)c2ccccc2C(=O)N1Cc1ccccc1 (stereo unspecified) | > 200 µM

Row | SMILES | IC50
51 | O=C1c2ccccc2C(OCCc2ccccc2)(c2ccccc2)N1Cc1ccccc1 (stereo unspecified) | > 500 µM
52 | O=C1c2ccccc2C(NCC(O)c2ccc(O)cc2)(c2ccccc2)N1Cc1ccccc1 (stereo unspecified) | 227 µM
53 | CCCOC1(c2ccccc2)c2ccccc2C(=O)N1CCO (stereo unspecified) | > 500 µM
54 | O=C1c2ccccc2C(OCc2ccco2)(c2ccccc2)N1Cc1ccccc1 (stereo unspecified) | > 500 µM
55 | O=C1c2ccccc2C(=O)N1CCCOC1(c2ccccc2)c2ccccc2C(=O)N1Cc1ccccc1 (stereo unspecified) | 189 µM
56 | O=C1c2ccccc2C(OCCN2CCOCC2)(c2ccccc2)N1Cc1ccccc1 (stereo unspecified) | > 500 µM
57 | CCCCc1ncc(COC2(c3ccccc3)c3ccccc3C(=O)N2Cc2ccccc2)[nH]1 (stereo unspecified) | 78 µM
58 | CC(=O)NCCOC1(c2ccccc2)c2ccccc2C(=O)N1Cc1ccccc1 (stereo unspecified) | 281 µM
59 | CCCOC1(c2ccccc2)c2ccccc2C(=O)N1CCC (stereo unspecified) | > 200 µM
60 | CCCOC1(c2ccccc2)c2ccccc2C(=O)N1Cc1ccc(OC)cc1 (stereo unspecified) | 413 µM
61 | COC(=O)C(Cc1ccc(O)cc1)N1C(=O)c2ccccc2C1(OCCOC(C)=O)c1ccccc1 (stereo unspecified) | 380 µM
62 | CCCN1C(=O)c2ccccc2C1(OCc1[nH]cnc1C)c1ccc(C(C)(C)C)cc1 (stereo unspecified) | 64.3 µM
63 | O=C1CCCN1CCOC1(c2ccccc2)c2ccccc2C(=O)N1Cc1ccccc1 (stereo unspecified) | 393 µM
64 | C=C(C)C(=O)OCCN1C(=O)c2ccccc2C1(N[C@@H](CO)[C@@H](O)c1ccccc1)c1ccccc1 (stereo partly specified) | 103 µM
65 | CCCN1C(=O)c2ccccc2C1(OCCN1CCNC1=O)c1ccc(C(C)(C)C)cc1 (stereo unspecified) | 74.3 µM
66 | N#CCCNC1(c2ccccc2)c2ccccc2C(=O)N1Cc1ccccc1 (stereo unspecified) | 190 µM
67 | O=C1c2ccccc2C(OCCNC(=O)C(F)(F)F)(c2ccccc2)N1Cc1ccccc1 (stereo unspecified) | 409 µM
68 | O=C(NCCOC1(c2ccccc2)c2ccccc2C(=O)N1Cc1ccccc1)c1ccc(O)cc1O (stereo unspecified) | 96 µM
69 | CCCOC1(c2ccccc2)c2ccccc2C(=O)N1[C@@H](CCCCN)C(=O)OC (stereo partly specified) | 79 µM
70 | C[Si](C)(C)CCOCOc1ccc(C2(OCCCO)c3ccccc3C(=O)N2Cc2ccccc2)cc1 (stereo unspecified) | 476 µM
71 | O=C1c2ccccc2C(OCc2ccc(Cl)c([N+](=O)[O-])c2)(c2ccccc2)N1Cc1ccccc1 (stereo unspecified) | 206 µM
